# From patent US10844077B2, “Thiazolyl-containing compounds for treating proliferative diseases” (Dana-Farber Cancer Institute, Inc., priority 2014, dated 2020)
# Assays:
# BTK = BTK (Homo sapiens (Human), UniProt Q06187); experiment: BTK inhibitory activity; format: biochemical
# BCWM.1 = experiment: CellTiter-Glo Luminescent cell viability assay; format: cell-based; details: cell survival, 72 hours
# Description: (§1) The inhibitory activities of exemplary compounds described herein against select protein kinases and cells were determined. Cell survival following treatment of exemplary compounds described herein was assessed by CellTiter-Glo® Luminescent cell viability assay (Promega). The cells were seeded into 384 well plates with the EL406 Combination Washer Dispenser (BioTek Instruments, Inc.), and a series diluted exemplary compounds (20˜0.0006 μM) were injected into the culture media with the JANUS Automated Workstation (PerkinElmer Inc.). The cells were treated for 72 hours at 37° C. with 5% CO2. Luminescent measurement is performed using the 2104 Envision® Multilabel Reader (PerkinElmer Inc.). EC50 values were calculated with […] PRISM software.
# HBL-1 = experiment: CellTiter-Glo Luminescent cell viability assay; format: cell-based; details: cell survival, 72 hours
# Description: as §1
# MWCL-1 = experiment: CellTiter-Glo Luminescent cell viability assay; format: cell-based; details: cell survival, 72 hours
# Description: as §1
# TMD-8 = experiment: CellTiter-Glo Luminescent cell viability assay; format: cell-based; details: cell survival, 72 hours
# Description: as §1
# OCI-Ly19 = experiment: CellTiter-Glo Luminescent cell viability assay; format: cell-based; details: cell survival, 72 hours
# Description: as §1
# OCI-Ly3 = experiment: CellTiter-Glo Luminescent cell viability assay; format: cell-based; details: cell survival, 72 hours
# Description: as §1
# Ramos = experiment: CellTiter-Glo Luminescent cell viability assay; format: cell-based; details: cell survival, 72 hours
# Description: as §1
# OCI-Ly7 = experiment: CellTiter-Glo Luminescent cell viability assay; format: cell-based; details: cell survival, 72 hours
# Description: as §1
# HCK = HCK (Homo sapiens (Human), UniProt P08631); experiment: HCK inhibitory activity; format: biochemical
# Chain of HCK (P08631 whole entry): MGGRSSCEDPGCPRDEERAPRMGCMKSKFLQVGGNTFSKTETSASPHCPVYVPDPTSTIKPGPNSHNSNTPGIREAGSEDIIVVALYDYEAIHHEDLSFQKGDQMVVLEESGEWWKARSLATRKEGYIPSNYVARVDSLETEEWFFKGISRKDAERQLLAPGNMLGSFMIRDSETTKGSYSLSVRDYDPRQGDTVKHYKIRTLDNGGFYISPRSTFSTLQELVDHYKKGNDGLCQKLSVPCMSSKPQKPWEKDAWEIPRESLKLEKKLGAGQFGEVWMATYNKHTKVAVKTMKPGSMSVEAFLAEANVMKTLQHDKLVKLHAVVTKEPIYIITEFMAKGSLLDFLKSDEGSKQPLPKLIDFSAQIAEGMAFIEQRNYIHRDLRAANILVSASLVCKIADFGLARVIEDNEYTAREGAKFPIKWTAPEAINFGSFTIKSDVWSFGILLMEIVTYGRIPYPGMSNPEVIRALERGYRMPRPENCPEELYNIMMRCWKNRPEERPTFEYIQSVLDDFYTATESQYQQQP
# OPM-2 = experiment: CellTiter-Glo Luminescent cell viability assay; format: cell-based; details: Homo sapiens, cell survival, 72 hours
# Description: as §1
# RPMI-8226 = experiment: CellTiter-Glo Luminescent cell viability assay; format: cell-based; details: Homo sapiens, cell survival, 72 hours
# Description: as §1
# Chain of BTK (Q06187 whole entry, looked up): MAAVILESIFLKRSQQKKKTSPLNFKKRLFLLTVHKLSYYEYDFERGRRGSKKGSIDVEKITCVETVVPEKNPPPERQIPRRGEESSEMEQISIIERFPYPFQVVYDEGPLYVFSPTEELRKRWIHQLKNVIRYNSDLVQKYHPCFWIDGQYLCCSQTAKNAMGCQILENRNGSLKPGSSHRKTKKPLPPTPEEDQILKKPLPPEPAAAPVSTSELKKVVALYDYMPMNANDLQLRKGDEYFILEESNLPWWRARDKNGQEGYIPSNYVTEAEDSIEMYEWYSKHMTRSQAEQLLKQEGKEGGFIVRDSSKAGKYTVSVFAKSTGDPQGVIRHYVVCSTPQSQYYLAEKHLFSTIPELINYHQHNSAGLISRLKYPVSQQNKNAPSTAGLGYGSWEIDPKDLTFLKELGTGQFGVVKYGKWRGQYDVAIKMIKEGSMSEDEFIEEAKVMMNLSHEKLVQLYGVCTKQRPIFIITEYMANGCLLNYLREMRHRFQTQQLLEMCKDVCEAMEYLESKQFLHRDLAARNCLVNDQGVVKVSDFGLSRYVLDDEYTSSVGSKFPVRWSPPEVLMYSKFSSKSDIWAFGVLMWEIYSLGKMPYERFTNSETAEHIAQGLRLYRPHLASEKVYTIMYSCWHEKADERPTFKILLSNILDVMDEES
SMILES,IC50 (BTK) [nM],EC50 (BCWM.1) [nM],EC50 (HBL-1) [nM],EC50 (MWCL-1) [nM],EC50 (TMD-8) [nM],EC50 (OCI-Ly19) [nM],EC50 (OCI-Ly3) [nM],EC50 (Ramos) [nM],EC50 (OCI-Ly7) [nM],IC50 (HCK) [nM],EC50 (BCWM.1; BCWM1) [nM],EC50 (HBL-1; HBL1) [nM],"EC50 (OCI-Ly19; Homo sapiens, OCI-LY19) [nM]","EC50 (OCI-Ly3; Homo sapiens, OCI-Ly3) [nM]","EC50 (OCI-Ly7; Homo sapiens, OCI-Ly7) [nM]",EC50 (OPM-2) [nM],EC50 (RPMI-8226) [nM],"EC50 (Ramos; Homo sapiens, Ramos) [nM]","EC50 (TMD-8; Homo sapiens, TMD8) [nM]"
C=CC(=O)N1CC[C@H](Nc2nc(CN3CCOCC3)cc(Nc3ncc(C(=O)Nc4c(C)cccc4Cl)s3)n2)C1 [Compound I-1],1.61,73.4,522,50,301,,,,,,,,,,,,,,
C=CC(=O)N1CC[C@H](Nc2nc(CN3CCOCC3)cc(Nc3ncc(C(=O)Nc4c(C)cccc4C)s3)n2)C1 [Compound I-2],1.63,41,1670,67,311,> 20000,> 20000,> 20000,,,,,,,,,,,
C=CC(=O)N1CC[C@H](Nc2nccc(Nc3ncc(C(=O)Nc4c(C)cccc4C)s3)n2)C1 [Compound I-3],0.6,19.3,669,55.2,158,13000,39500,> 20000,370,,,,,,,,,,
C=CC(=O)N1CC[C@@H](Nc2nccc(Nc3ncc(C(=O)Nc4c(C)cccc4C)s3)n2)C1 [Compound I-4],1.38,53,449,85,315,4270,,> 20000,,,,,,,,,,,
C=CC(=O)N1CCCCC(Nc2nccc(Nc3ncc(C(=O)Nc4c(C)cccc4C)s3)n2)C1 (stereo not drawn) [Compound I-7],< 0.495,22,70,19,49,399,,133,,< 0.495,,,,,,,,,
C=CC(=O)N1CCC(CNc2nccc(Nc3ncc(C(=O)Nc4c(C)cccc4C)s3)n2)C1 (stereo not drawn) [Compound I-8],< 0.495,75,522,103,301,3770,,7970,,< 0.495,,,,,,,,,
CCC(=O)N1CC[C@H](Nc2nccc(Nc3ncc(C(=O)Nc4c(C)cccc4C)s3)n2)C1 [Compound I-9],0.5,9.84,220,25,70.9,10000,14500,> 20000,,< 0.495,,,,,,,,,
C=CC(=O)N1CCCC(Nc2nc(CN3CCOCC3)cc(Nc3ncc(C(=O)Nc4c(C)cccc4C)s3)n2)C1 (stereo not drawn) [Compound I-12],,75.5,1200,317,453,,,,309,,,,,,,,,,
"Cc1nc(Nc2ncc(C(=O)Nc3c(C)cccc3Cl)s2)cc(N2CCN(CCO)CC2)n1 [Dasatinib, dasatinib, reference compound]",,,,7.41,,,,,,,1.2,190,3860,8060,155,7110,5390,4560,18.7
C=CC(=O)N1CCCC(Cn2ccc(Nc3ncc(C(=O)Nc4c(C)cccc4Cl)s3)n2)C1 (stereo not drawn) [II-2],< 0.495,196,1000,166,929,6540,,> 20000,,,,,,,,,,,
C=CC(=O)N1CCC(n2cc(Nc3ncc(C(=O)Nc4c(C)cccc4Cl)s3)cn2)CC1 [II-3],19.9,690,3650,772,2540,9970,,> 20000,,,,,,,,,,,
c1ccc(Oc2ccc3nc(Nc4cnn(C5CCOCC5)c4)sc3n2)cc1 [III-8],> 10000,7250,> 20000,> 20000,14600,12600,,> 20000,,> 10000,,,,,,,,,

# Second part, led by results:
IC50 (BTK) [nM],SMILES,EC50 (BCWM.1) [nM],EC50 (HBL-1) [nM],EC50 (MWCL-1) [nM],EC50 (TMD-8) [nM],EC50 (OCI-Ly19) [nM],EC50 (OCI-Ly3) [nM],EC50 (Ramos) [nM],EC50 (OCI-Ly7) [nM],IC50 (HCK) [nM],EC50 (BCWM.1; BCWM1) [nM],EC50 (HBL-1; HBL1) [nM],"EC50 (OCI-Ly19; Homo sapiens, OCI-LY19) [nM]","EC50 (OCI-Ly3; Homo sapiens, OCI-Ly3) [nM]","EC50 (OCI-Ly7; Homo sapiens, OCI-Ly7) [nM]",EC50 (OPM-2) [nM],EC50 (RPMI-8226) [nM],"EC50 (Ramos; Homo sapiens, Ramos) [nM]","EC50 (TMD-8; Homo sapiens, TMD8) [nM]"
1.9,C=CC(=O)N1CCC[C@@H](Nc2nccc(Nc3ncc(C(=O)Nc4c(C)cccc4C)s3)n2)C1 [Compound I-6],69.6,229,93.7,80.2,,,,520,,,,,,,,,,
1.74,C=CC(=O)N1CC[C@H](Nc2nccc(Nc3ncc(C(=O)Nc4c(C)cccc4Cl)s3)n2)C1 [Compound I-10],170,1640,191,1010,5700,,12,,,,,,,,,,,
5.52,C=CC(=O)N1CCCCC(Nc2nccc(Nc3ncc(C(=O)Nc4c(C)cccc4Cl)s3)n2)C1 (stereo not drawn) [Compound I-11],129,623,245,500,3680,,1580,,,,,,,,,,,
86.6,C=CC(=O)N1CC[C@H](Nc2nccc(Nc3nc4ccc(Oc5ccccc5)nc4s3)n2)C1 [III-1],1830,3200,4080,3850,1250,,3700,,,,,,,,,,,
281,C=CC(=O)N1CC[C@@H](Nc2nccc(Nc3nc4ccc(Oc5ccccc5)nc4s3)n2)C1 [III-2],916,2960,1350,2640,1100,,2300,,,,,,,,,,,
19.4,C=CC(=O)N1CCC[C@H](Nc2nccc(Nc3nc4ccc(Oc5ccccc5)nc4s3)n2)C1 [III-3],2710,2960,5750,4130,2500,,8460,,,,,,,,,,,
367,C=CC(=O)N1CCC[C@@H](Nc2nccc(Nc3nc4ccc(Oc5ccccc5)nc4s3)n2)C1 [III-4],808,2550,2160,2120,1170,,2190,,,,,,,,,,,
9.06,C=CC(=O)N1CCCCC(Nc2nccc(Nc3nc4ccc(Oc5ccccc5)nc4s3)n2)C1 (stereo not drawn) [III-5],1190,896,3370,1230,1330,,2720,,,,,,,,,,,
2580,Cn1ccc(Nc2nc3ccc(Oc4ccccc4)nc3s2)n1 [III-6],270,450,2170,467,321,,749,,,,,,,,,,,
> 10000,Cn1cc(Nc2nc3ccc(Oc4ccccc4)nc3s2)cn1 [III-7],> 20000,> 20000,> 20000,> 20000,9520,,> 20000,,> 10000,,,,,,,,,
2660,c1ccc(Oc2ccc3nc(Nc4cnn(C5CCNCC5)c4)sc3n2)cc1 [III-9],8290,> 20000,16600,18300,7060,,11800,,,,,,,,,,,
